Experimental data from PMC10017518, “Structural basis for bacterial energy extraction from atmospheric hydrogen” (Nature, 2023).
Values belong to the molecule of their own block, whether it stands above or below them.

How the values were obtained:
[1] = molecular target: T1, Huc (Mycolicibacterium smegmatis, UniProt A0QUM6+A0QUM7); test: H2 electrode and gas chromatography of H2 consumption; type: biochemical; settings: H2 as donor, 50 mM Tris, 150 mM NaCl, pH 8.0
T1 construct: gene hybA; native host purification, chromosomal N-terminal 2×StrepII tag on HucS, tag kept; 833 kDa oligomer of four HucS2L2 lobes on a HucM tetramer; HucL ~58, HucS ~39, HucM ~18 kDa; with Group 2a [NiFe] hydrogenase large subunit HucL; Huc scaffold and stalk protein HucM
T1 sequence (A0QUM6 2-323): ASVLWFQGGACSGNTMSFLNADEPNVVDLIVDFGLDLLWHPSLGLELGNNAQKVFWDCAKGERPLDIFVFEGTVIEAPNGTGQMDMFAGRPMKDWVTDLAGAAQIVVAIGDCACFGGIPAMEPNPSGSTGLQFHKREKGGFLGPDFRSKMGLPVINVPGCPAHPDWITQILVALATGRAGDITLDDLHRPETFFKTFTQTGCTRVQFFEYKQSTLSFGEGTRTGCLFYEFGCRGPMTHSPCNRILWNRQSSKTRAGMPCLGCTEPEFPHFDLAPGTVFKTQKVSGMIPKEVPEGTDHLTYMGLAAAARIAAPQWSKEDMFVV
T1 sequence (A0QUM7 2-516): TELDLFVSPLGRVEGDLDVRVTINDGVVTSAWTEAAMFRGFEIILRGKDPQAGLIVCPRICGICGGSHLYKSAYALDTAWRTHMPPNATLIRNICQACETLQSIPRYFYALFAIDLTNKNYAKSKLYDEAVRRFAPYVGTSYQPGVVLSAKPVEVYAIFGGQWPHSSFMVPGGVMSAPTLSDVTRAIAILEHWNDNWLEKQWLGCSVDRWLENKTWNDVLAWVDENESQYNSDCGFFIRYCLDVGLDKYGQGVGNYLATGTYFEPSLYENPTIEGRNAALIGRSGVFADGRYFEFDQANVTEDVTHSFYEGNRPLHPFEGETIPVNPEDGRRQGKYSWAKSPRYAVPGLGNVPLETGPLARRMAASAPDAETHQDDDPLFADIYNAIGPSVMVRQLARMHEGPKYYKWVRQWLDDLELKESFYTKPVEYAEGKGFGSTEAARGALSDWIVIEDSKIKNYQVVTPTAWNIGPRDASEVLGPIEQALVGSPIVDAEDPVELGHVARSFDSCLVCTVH
T1 sequence (A0QUM5 1-189 partner): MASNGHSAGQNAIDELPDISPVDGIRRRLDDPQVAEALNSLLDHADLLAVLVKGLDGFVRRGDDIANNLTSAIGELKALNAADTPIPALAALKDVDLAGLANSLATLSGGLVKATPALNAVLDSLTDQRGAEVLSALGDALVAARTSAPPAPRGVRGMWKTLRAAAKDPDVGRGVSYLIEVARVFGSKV

[2] = molecular target: Huc protomer (HucSL heterodimer) (Mycobacterium smegmatis mc2155); test: cryo-EM structure; single-particle reconstruction of the purified Huc oligomer (2.19 Å overall) and of the individual HucS2L2 lobe (1.52 Å and 1.67 Å)
[3] = molecular target: the molecule itself; test: as above

Molecule: CC1=CC(=O)c2ccccc2C1=O [menadione]
H2 electrode and gas chromatography of H2 consumption ([1]; 200 µM menadione as electron acceptor): Huc displayed a much higher maximum velocity with menadione

Molecule: COc1cc(-c2ccc(-n3nc(-c4ccccc4)n[n+]3-c3ccc([N+](=O)[O-])cc3)c(OC)c2)ccc1-n1nc(-c2ccccc2)n[n+]1-c1ccc([N+](=O)[O-])cc1 [nitro blue tetrazolium]
H2 electrode and gas chromatography of H2 consumption ([1]; 200 µM NBT as electron acceptor): using nitro blue tetrazolium (NBT) or the quinone analogue menadione as the electron acceptor

stoichiometry N [2]: 2
Molecule: Huc protomer (HucSL heterodimer) (complex)

B1: HucM (MSMEG_2261), scaffold subunit of the Mycobacterium smegmatis hydrogenase Huc (natural protein, Mycobacterium smegmatis mc2155, UniProt A0QUM5 1-189, looked up)
chain: T1 sequence (A0QUM5 1-189 partner)
notes: HucM, uncharacterized protein MSMEG_2261 encoded directly upstream of hucS in the huc operon, Mycobacterium smegmatis mc2155; approximately 18 kDa; 188 amino acids printed (residues 80 to 189 are also printed); only residues 20-79 modelled in the cryo-EM map; source: M. smegmatis mc2155 PRC1 HucS-2×StrII, endogenous; in cell lysate and co-purified with HucS (StrepTrap, Superose 6)
stoichiometry N [3]: 4
